From patent US20250000865A1, “COMPOUND FOR REDUCING URIC ACID LEVELS” (NEWSOARA BIOPHARMA CO., LTD., priority 2021, published 2025)

Tested on: healthy subjects
Assay: Phase I clinical trial, multiple-dose groups (once a day, 7 consecutive days): uric acid index before and after treatment
Assay type: in vivo, human
Conditions: for Uric acid (UA) Mean (standard deviation) / Uric acid (UA) Median / Uric acid (UA) Minimum value / Uric acid (UA) maximum value / Uric acid (UA) Changes over baseline at last visit (on day 14), Mean (standard deviation) / Uric acid (UA) Changes over baseline at last visit (on day 14), Median / Uric acid (UA) Changes over baseline at last visit (on day 14), Minimum value / Uric acid (UA) Changes over baseline at last visit (on day 14), maximum value / Uric acid (UA) Changes over baseline on day 2, Mean (standard deviation) / Uric acid (UA) Changes over baseline on day 2, Median / Uric acid (UA) Changes over baseline on day 2, Minimum value / Uric acid (UA) Changes over baseline on day 2, maximum value / Uric acid (UA) Changes over baseline on day 11, Mean (standard deviation) / Uric acid (UA) Changes over baseline on day 11, Median / Uric acid (UA) Changes over baseline on day 11, Minimum value / Uric acid (UA) Changes over baseline on day 11, maximum value / Uric acid (UA) Changes over baseline on days 4-6, Mean (standard deviation) / Uric acid (UA) Changes over baseline on days 4-6, Median / Uric acid (UA) Changes over baseline on days 4-6, Minimum value / Uric acid (UA) Changes over baseline on days 4-6, maximum value: N = 9
Description: The changes of uric acid levels in subjects in single-dose and multi-dose groups of Compound I are shown in FIG. 1A (single dose of 6 mg and single dose of 10 mg), FIG. 1B (single dose of 20 mg and single dose of 30 mg), and FIG. 2 (multi-dose of 10 mg and multi-dose of 20 mg). The corresponding results are also shown in Tables 1.1, 1.2, 1.3, and 2.1, and tables 2.2, 2.3, and 2.4.

[1] = Baseline, multiple dose 10 mg once a day 7 days
[2] = Baseline, multiple dose 20 mg once a day 7 days
[3] = Day 2, multiple dose 10 mg once a day 7 days
[4] = Day 2, multiple dose 20 mg once a day 7 days
[5] = Day 11, multiple dose 10 mg once a day 7 days
[6] = Day 11, multiple dose 20 mg once a day 7 days
[7] = Days 4-6, multiple dose 10 mg once a day 7 days
[8] = Days 4-6, multiple dose 20 mg once a day 7 days
[9] = Last visit (day 14), multiple dose 10 mg once a day 7 days
[10] = Last visit (day 14), multiple dose 20 mg once a day 7 days
[11] = multiple dose 10 mg once a day 7 days
[12] = multiple dose 20 mg once a day 7 days

**Q.** For COc1cccc2c1ncc1c(=O)n(C3CCC(C(=O)O)CC3)c(=O)n(-c3cccc(Cl)c3)c12 (centres unmarked) [Compound I, 4-[1-(3-chlorophenyl)-7-methoxy-2,4-dioxo-pyrimido[5,4-c]quinolin-3-yl]cyclohexanecarboxylic acid], which “Uric acid (UA) Mean (standard deviation)” value [1] is on record?
**A.** 314.4 (84.59) μmol/L

**Q.** What about the “Uric acid (UA) Median” value [1] of the same compound?
**A.** 290.0 µmol/L

**Q.** What about the “Uric acid (UA) Minimum value” [1] of the same compound?
**A.** 215 µmol/L

**Q.** What about the “Uric acid (UA) maximum value” [1] of the same compound?
**A.** 452 µmol/L

**Q.** And the “Uric acid (UA) Mean (standard deviation)” value [2]?
**A.** 337.2 (50.38) μmol/L

**Q.** And the “Uric acid (UA) Median” value [2]?
**A.** 349.0 µmol/L

**Q.** And the “Uric acid (UA) Minimum value” [2]?
**A.** 259 µmol/L

**Q.** And the “Uric acid (UA) maximum value” [2]?
**A.** 400 µmol/L

**Q.** And the “Uric acid (UA) Mean (standard deviation)” value [3]?
**A.** 254.9 (74.41) μmol/L

**Q.** What about the “Uric acid (UA) Median” value [3] of the same compound?
**A.** 248.0 µmol/L

**Q.** And the “Uric acid (UA) Minimum value” [3]?
**A.** 155 µmol/L

**Q.** And the “Uric acid (UA) maximum value” [3]?
**A.** 397 µmol/L

**Q.** What about the “Uric acid (UA) Mean (standard deviation)” value [4] of the same compound?
**A.** 221.6 (63.82) μmol/L

**Q.** What about the “Uric acid (UA) Median” value [4] of the same compound?
**A.** 216.0 µmol/L

**Q.** And the “Uric acid (UA) Minimum value” [4]?
**A.** 142 µmol/L

**Q.** And the “Uric acid (UA) maximum value” [4]?
**A.** 373 µmol/L

**Q.** And the “Uric acid (UA) Mean (standard deviation)” value [5]?
**A.** 325.1 (67.57) μmol/L

**Q.** What about the “Uric acid (UA) Median” value [5] of the same compound?
**A.** 314.0 µmol/L

**Q.** And the “Uric acid (UA) Minimum value” [5]?
**A.** 222 µmol/L

**Q.** And the “Uric acid (UA) maximum value” [5]?
**A.** 439 µmol/L

**Q.** And the “Uric acid (UA) Mean (standard deviation)” value [6]?
**A.** 341.8 (58.10) μmol/L

**Q.** What about the “Uric acid (UA) Median” value [6] of the same compound?
**A.** 323.0 µmol/L

**Q.** What about the “Uric acid (UA) Minimum value” [6] of the same compound?
**A.** 262 µmol/L

**Q.** What about the “Uric acid (UA) maximum value” [6] of the same compound?
**A.** 460 µmol/L

**Q.** And the “Uric acid (UA) Mean (standard deviation)” value [7]?
**A.** 201.8 (58.87) μmol/L

**Q.** What about the “Uric acid (UA) Median” value [7] of the same compound?
**A.** 204.0 µmol/L

**Q.** What about the “Uric acid (UA) Minimum value” [7] of the same compound?
**A.** 119 µmol/L

**Q.** What about the “Uric acid (UA) maximum value” [7] of the same compound?
**A.** 307 µmol/L

**Q.** What about the “Uric acid (UA) Mean (standard deviation)” value [8] of the same compound?
**A.** 158.0 (51.31) μmol/L

**Q.** And the “Uric acid (UA) Median” value [8]?
**A.** 140.0 µmol/L

**Q.** And the “Uric acid (UA) Minimum value” [8]?
**A.** 105 µmol/L

**Q.** And the “Uric acid (UA) maximum value” [8]?
**A.** 267 µmol/L

**Q.** And the “Uric acid (UA) Mean (standard deviation)” value [9]?
**A.** 326.9 (74.58) μmol/L

**Q.** And the “Uric acid (UA) Median” value [9]?
**A.** 337.0 µmol/L

**Q.** What about the “Uric acid (UA) Minimum value” [9] of the same compound?
**A.** 219 µmol/L

**Q.** And the “Uric acid (UA) maximum value” [9]?
**A.** 422 µmol/L

**Q.** And the “Uric acid (UA) Mean (standard deviation)” value [10]?
**A.** 378.4 (37.55) μmol/L

**Q.** What about the “Uric acid (UA) Median” value [10] of the same compound?
**A.** 376.0 µmol/L

**Q.** What about the “Uric acid (UA) Minimum value” [10] of the same compound?
**A.** 309 µmol/L

**Q.** And the “Uric acid (UA) maximum value” [10]?
**A.** 440 µmol/L

**Q.** What about the “uric acid level on the following days (days 4-6)” value (multi-dose groups) of the same compound?
**A.** continuous decrease

**Q.** What about the “uric acid level the next day after administration” value (multi-dose groups, certain dose dependence) of the same compound?
**A.** decreases obviously

**Q.** What about the “Uric acid (UA) Changes over baseline at last visit (on day 14), Mean (standard deviation)” value [11] of the same compound?
**A.** 12.4 (37.22) μmol/L

**Q.** And the “Uric acid (UA) Changes over baseline at last visit (on day 14), Median” value [11]?
**A.** 6.0 µmol/L

**Q.** What about the “Uric acid (UA) Changes over baseline at last visit (on day 14), Minimum value” [11] of the same compound?
**A.** -45 µmol/L

**Q.** What about the “Uric acid (UA) Changes over baseline at last visit (on day 14), maximum value” [11] of the same compound?
**A.** 58 µmol/L

**Q.** What about the “Uric acid (UA) Changes over baseline on day 2, Mean (standard deviation)” value [11] of the same compound?
**A.** −59.6 (40.77) μmol/L

**Q.** And the “Uric acid (UA) Changes over baseline on day 2, Median” value [11]?
**A.** -50.0 µmol/L

**Q.** And the “Uric acid (UA) Changes over baseline on day 2, Minimum value” [11]?
**A.** -135 µmol/L

**Q.** What about the “Uric acid (UA) Changes over baseline on day 2, maximum value” [11] of the same compound?
**A.** 6 µmol/L

**Q.** And the “Uric acid (UA) Changes over baseline on day 11, Mean (standard deviation)” value [11]?
**A.** 10.7 (31.86) μmol/L

**Q.** What about the “Uric acid (UA) Changes over baseline on day 11, Median” value [11] of the same compound?
**A.** 15.0 µmol/L

**Q.** What about the “Uric acid (UA) Changes over baseline on day 11, Minimum value” [11] of the same compound?
**A.** -52 µmol/L

**Q.** And the “Uric acid (UA) Changes over baseline on day 11, maximum value” [11]?
**A.** 60 µmol/L

**Q.** And the “Uric acid (UA) Changes over baseline on days 4-6, Mean (standard deviation)” value [11]?
**A.** −112.7 (57.68) μmol/L

**Q.** What about the “Uric acid (UA) Changes over baseline on days 4-6, Median” value [11] of the same compound?
**A.** -118.0 µmol/L

**Q.** And the “Uric acid (UA) Changes over baseline on days 4-6, Minimum value” [11]?
**A.** -234 µmol/L

**Q.** What about the “Uric acid (UA) Changes over baseline on days 4-6, maximum value” [11] of the same compound?
**A.** -35 µmol/L

**Q.** And the “Uric acid (UA) Changes over baseline at last visit (on day 14), Mean (standard deviation)” value [12]?
**A.** 41.2 (44.32) μmol/L

**Q.** What about the “Uric acid (UA) Changes over baseline at last visit (on day 14), Median” value [12] of the same compound?
**A.** 40.0 µmol/L

**Q.** And the “Uric acid (UA) Changes over baseline at last visit (on day 14), Minimum value” [12]?
**A.** -11 µmol/L

**Q.** What about the “Uric acid (UA) Changes over baseline at last visit (on day 14), maximum value” [12] of the same compound?
**A.** 135 µmol/L

**Q.** And the “Uric acid (UA) Changes over baseline on day 2, Mean (standard deviation)” value [12]?
**A.** −115.7 (55.40) μmol/L

**Q.** And the “Uric acid (UA) Changes over baseline on day 2, Median” value [12]?
**A.** -142.0 µmol/L

**Q.** What about the “Uric acid (UA) Changes over baseline on day 2, Minimum value” [12] of the same compound?
**A.** -184 µmol/L

**Q.** And the “Uric acid (UA) Changes over baseline on day 2, maximum value” [12]?
**A.** -26 µmol/L

**Q.** What about the “Uric acid (UA) Changes over baseline on day 11, Mean (standard deviation)” value [12] of the same compound?
**A.** 4.6 (43.38) μmol/L

**Q.** What about the “Uric acid (UA) Changes over baseline on day 11, Median” value [12] of the same compound?
**A.** 2.0 µmol/L

**Q.** What about the “Uric acid (UA) Changes over baseline on day 11, Minimum value” [12] of the same compound?
**A.** -52 µmol/L

**Q.** And the “Uric acid (UA) Changes over baseline on day 11, maximum value” [12]?
**A.** 67 µmol/L

**Q.** And the “Uric acid (UA) Changes over baseline on days 4-6, Mean (standard deviation)” value [12]?
**A.** −179.2 (54.55) μmol/L

**Q.** What about the “Uric acid (UA) Changes over baseline on days 4-6, Median” value [12] of the same compound?
**A.** -175.0 µmol/L

**Q.** And the “Uric acid (UA) Changes over baseline on days 4-6, Minimum value” [12]?
**A.** -260 µmol/L

**Q.** And the “Uric acid (UA) Changes over baseline on days 4-6, maximum value” [12]?
**A.** -108 µmol/L
